Data reported in patent publication US4562196A, “2,4-Diaminopyridine as a pharmacologic agent” (Nelson Research & Development, priority 1984, dated 1985).

Legend:
[1] = system: neuromuscular transmission blocked with pancuronium bromide (rat phrenic nerve-hemidiaphragm); test: Rat hemidiaphragm: antagonism of pancuronium blockade in vitro; parameters: species or system male Wistar rats; settings: for EC50: 90% block by pancuronium bromide about 8×10^-6 M, 37° C., cumulative addition, read-out: EC50 (concentration that produces a 50% antagonism)
Procedure: Left hemidiaphragms with their phrenic nerves were removed from male Wistar rats weighing 280-320 g. and were mounted in an organ bath, containing Krebs solution, maintained at 37° C. and gassed with oxygen containing 5% CO2. The nerve was stimulated at a frequency of 0.1 Hz via electrodes with rectangular pulses of 0.3 ms duration and of a strength greater than that required to reproduce maximal twitch.

guinea-pig ileum = test: Ileum of the guinea pig: activity on smooth muscle; settings: for pD2 (negative logarithm of the dose required to produce 50% of the maximum response): compared to maximal contraction by 2×10^-7 M carbochol, 37° C.
Procedure: This preparation tests the pharmacological activity on smooth muscle (Moritoki, Takei, Makomoto and Ishida, Arch. Int. Pharmacodyn. Ther. 232, 28 (1978).
The […] of the ileum was measured. This is compared to the maximal contraction caused by carbochol. From dose response curves the following pD2 values were determined (the pD2 value is the negative logarithm of the dose required to produce 50% of the maximum response).
Segments of guinea-pig ileum of 3 to 4 cm. length from 10 cm above the ileocaecal junction were used. The oral end of each segment was fixed to a hook and the distal end was connected to an isotonic transducer with a 1 g counterweight. The preparation was then immersed to an organ bath (25 ml) at 37° C. containing Krebs solution and bubbled with oxygen containing 5% CO2. After an equilibration time of about 1 hour, 2×10^-7 M carbochol was added to the bath for maximal contraction. After wash out (2×) the drugs were added cumulatively to the bath.

rat heart = test: Isolated heart of the rat: positive inotropic action; parameters: species or system male Wistar rats; settings: for changes in frequency or E.C.G.: same perfusion as L.V.P.
Procedure: This preparation evaluates the positive inotropic action of a drug (Koomen, van Gilst, Zimmerman and Noordwijk, Arch. Int. Pharmacodyn. Ther. 255, 212 (1982)).
Solutions of the aminopyridines were added to the perfusion solution of the rat heart. The left ventricular pressure (L.V.P.) was recorded in order to evalute the positive inotropic action. Frequency and E.C.G. were also monitored. Male Wistar rats (270-300 g) were anaesthetized with diethyl ether. After heparinization the hearts were quickly removed. Subsequently the heart was perfused according to the method of Langendorff. The perfusion fluid contained: NaCl 128 mM; KCl 4.7 mM; CaCl2 1.35 mM; MgCl2 1.05 mM; NaHPO4 0.42 mM; NaHCO3 20.2 mM; glucose 11.1 mM. The pH of the perfusion fluid after aeration with 95% O2 --5% CO2 was 7.35±0.05 (37° C.). L.V.P. was measured by means of a catheter inserted in the left ventricule and connected to a pressure transducer. A biopolar E.C.G. was obtained by means of two silver electrodes: one attached to the metal inflow cannula and the other to the ventricular apex. Coronary flow (volume of perfusion fluid per time unit) was measured by a microprocessor, which controlled the perfusion pressure by adjusting the peristaltic perfusion pump.

[2] = system: neuromuscular block by pancuronium bromide (sciatic nerve-anterior tibialis); test: Rat sciatic nerve-anterior tibialis preparation: antagonism of neuromuscular block in vivo; parameters: species or system Rats; settings: for ED50: Rattus norvegicus, iv, 10 min, read-out: ED50 (dose of drug producing a 50% antagonism), constant pancuronium infusion, 90-95% depression of twitch tension, cumulative dosing, 10 min interval
Procedure: This preparation is used to test the antagonistic action of aminopyridines against neuromuscular blocking agents in vivo. (Miller, Denissen, van der Pol, Agoston, Booy and Crul, J. Pharm. Pharmacol. 30, 699 (1978)).
Rats were administered a constant infusion of pancuronium bromide and when a constant block was achieved, one of the aminopyridines was administered. The ED50 's (dose of drug producing a 50% antagonism) were determined.
Rats (280-320 g) were anaesthetized with pentobarbital. Both jugular veins were cannulated for administration of drugs. A caratoid artery was cannulated for measurement and recording of arterial blood pressure. The trachea was intubated and ventilation controlled by means of a Braun air pump. The tendon of the left tibialist was freed, sectioned and connected to a force displacement transducer. The sciatic nerve was stimulated by supramaximal 0.1 Hz stimuli of 0.2 msec duration through a bipolar electrode. Twitch tension was recorded on a polygraph. The temperature of the rat was maintained at 37° C. with heating lamps. Pancuronium bromide was administered intravenously by continuous infusion until 90-95% depression of twitch tension was obtained. This infusion speed was maintained during the whole experiment. When the block was steady for at least 15 min one of the drugs was given cumulatively with 10 min interval.

[3] = system: ketamine-xylazine narcosis; test: Antagonism of ketamine-xylazine narcosis (central effects); format: in vivo, Rats
Procedure: This is a method of testing the central effects of the aminopyridines.
Rats were anaesthetized with xylazine (0.05 ml of a 2% soln, s.c.) and ketamine (0.1 ml of a soln, i.p.). After 10 min. the aminopyridines (1 mg./kg) were administered, i.v. The time required for "full recovery" (i.e. turning over and crawling) was measured. Groups of 10 rats were used for each treatment.

central nervous system = settings: in vivo; cited from earlier work
mice [4] = test: Acute toxicity (LD50), intraperitoneal, mice; format: in vivo; settings: from LD50 values
Procedure: Moreover, the LD50 values for intraperotoneal 4-AP and 3,4-DAP in mice are 10 mg./kg. and 20 mg./kg., respectively (Vohra, et al. J. Med. Chem 8, 296-304 (1965)). The LD50 dosage corresponds to a lethal dose in 50% of the animals treated. Thus, although not as toxic as 4-AP, 3,4-DAP suffers from the similar disadvantage of high toxicity at dosage levels near those that would be used in therapy.

mice [5] = settings: i.p., Vohra et al., J. Med. Chem. 8, 296 (1965); cited from earlier work
[6] = in vitro; vs 4-AP; cited from earlier work
[7] = 4-AP compared with 3,4-DAP; cited from earlier work
[8] = system: potassium channel in axonal membranes; settings: cited from earlier work
[9] = system: neuromuscular blocking drugs; settings: with neostigmine and pyridostigmine; cited from earlier work

Row | SMILES | EC50 [1] [µM] | pD2 (negative logarithm of the dose required to produce 50% of the maximum response) (guinea-pig ileum) | changes in frequency or E.C.G. (rat heart) | ED50 [2] [mg/kg] | convulsions, central adverse effects (central nervous system) | toxicity relative to 2,4-DAP (mice [4]) | LD50 (mice [5]) [mg/kg] | action in vivo [7] | further results
1 | Nc1ccnc(N)c1 [2,4-Diaminopyridine, 2,4-diaminopyridine] | 15 | 4.52 | No changes in frequency or E.C.G. were noted | 0.14 | has not been shown to cause convulsions | – | – | – | potency relative to 3,4-diaminopyridine ([1]; vs 3,4-diaminopyridine): about the same potency as 3,4-diaminopyridine; potency relative to 4-aminopyridine ([1]; vs 4-aminopyridine): about 3.5 times more potent; potency relative to 4-aminopyridine (guinea-pig ileum; vs 4-aminopyridine): slightly more potent than 4-aminopyridine; increase of left ventricular pressure (L.V.P.) (rat heart; 5×10^-6 mol/l to 10^-4 mol/l): up to 50%; effectiveness relative to 4-aminopyridine (rat heart; vs 4-aminopyridine): significantly more effective than 4-aminopyridine; potency relative to 3,4-diaminopyridine ([2]; vs 3,4-diaminopyridine): about twice as potent as 3,4-diaminopyridine; potency relative to 4-aminopyridine ([2]; vs 4-aminopyridine): about 3 times more potent; recovery compared with saline controls ([3]; 1 mg./kg, vs saline controls): did not differ significantly from controls receiving saline; central actions relative to 3,4-diaminopyridine ([3]; vs 3,4-diaminopyridine): somewhat weaker than those of 3,4-diaminopyridine; central actions relative to 4-aminopyridine ([3]; vs 4-aminopyridine): much weaker than those of 4-aminopyridine
2 | Nc1ccncc1N [3,4-Diaminopyridine, 3,4-diaminopyridine] | 10 | – | – | 0.25 | tendency to cause convulsions | an order of magnitude more toxic than the compound of the present invention | 20 | almost the same | peripheral and central action relative to 4-AP [6]: stronger peripheral action and less central action than 4-AP in vitro
3 | Nc1ccncc1 [4-Aminopyridine, 4-aminopyridine] | 55 | 4.30 | No changes in frequency or E.C.G. were noted | 0.45 | hypertension and convulsions at dosage levels only slightly exceeding the clinical dosage | an order of magnitude more toxic than the compound of the present invention | 10 | almost the same | increase of left ventricular pressure (L.V.P.) (rat heart; 2×10^-5 to 1×10^-4 mol/l): up to 40%; potassium channel blocking action [8]: potassium channel blocking action in axonal membranes; potentiation of anticholinesterase drugs [9]: potentiates anticholinesterase drugs
